What follows are compounds tested against T1, Neuronal acetylcholine receptor subunit alpha-7 (Rattus norvegicus, UniProt Q05941) (assay: biochemical).
T1 sequence (Q05941 whole entry): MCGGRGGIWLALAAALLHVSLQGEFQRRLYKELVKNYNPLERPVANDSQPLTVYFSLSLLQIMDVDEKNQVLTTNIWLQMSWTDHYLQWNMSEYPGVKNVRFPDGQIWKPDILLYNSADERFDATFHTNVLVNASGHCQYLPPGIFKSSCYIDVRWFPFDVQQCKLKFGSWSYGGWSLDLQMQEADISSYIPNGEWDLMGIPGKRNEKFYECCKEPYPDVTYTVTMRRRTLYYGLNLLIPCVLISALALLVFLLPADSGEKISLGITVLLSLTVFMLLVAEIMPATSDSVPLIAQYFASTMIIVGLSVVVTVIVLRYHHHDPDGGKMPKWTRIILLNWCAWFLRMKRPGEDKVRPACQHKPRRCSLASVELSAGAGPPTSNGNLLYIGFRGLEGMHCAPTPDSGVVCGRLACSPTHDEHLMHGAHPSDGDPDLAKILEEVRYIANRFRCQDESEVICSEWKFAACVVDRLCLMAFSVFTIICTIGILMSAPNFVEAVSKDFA
Description: In vitro binding affinity towards Nicotinic acetylcholine receptor alpha7 using [125I]-alpha-Bungarotoxin in rat brain
For O=c1cccc2n1C[C@@H]1CNC[C@H]2C1 [CYTISINICLINE], the Ki was 0.0009 µM.

Each compound was assayed against T1, Neuronal acetylcholine receptor subunit alpha-7 (assay: In vitro binding affinity towards Nicotinic acetylcholine receptor alpha7 using [125I]alpha-bungarotoxin in rat brain).
Type: tissue-based
CN1CCCC[C@H]1[C@@H]1CCc2cc(O)ccc2O1 (racemic) showed a Ki of over 10 µM. CN1CCCC[C@H]1[C@H]1CCc2ccccc2O1 (racemic) was tested, and the Ki was over 10 µM. CN1CCCC[C@H]1[C@@H]1CCc2ccccc2O1 (racemic) showed a Ki of over 10 µM. In the case of Cc1ncccc1OCC1CCCN1 (single isomer, unassigned; form 1) [POZANICLINE], the Ki is reported as over 10 µM. With CN1CCCC[C@H]1[C@H]1CCc2cc(O)ccc2O1 (racemic) the Ki was over 10 µM. Cc1ncccc1OCC1CCCN1 (single isomer, unassigned; form 2) gave a Ki of over 10 µM.
